# Key:
# Conditions in all cases: 72 h
# Vero E6 [1] = test: drug sensitivity score (DSS) for viability; higher = more toxic; extreme values may be limits of the assay
# U2OS [2] = test: as above
# HepG2 [3] = test: as above
# Caco-2 [4] = test: as above
# Vero E6 [5] = test: relative viability EC50 (midpoint between 100% and the lowest measured viability); higher = less toxic
# U2OS [6] = test: as above
# HepG2 [7] = test: as above
# Caco-2 [8] = test: as above
# Vero E6 [9] = test: cell viability relative to DMSO; higher = less toxic
# U2OS [10] = test: as above
# HepG2 [11] = test: as above
# Caco-2 [12] = test: as above
# Calu-3 [13] = test: drug sensitivity score (DSS) for viability; higher = more toxic; extreme values may be limits of the assay
# Calu-3 [14] = test: relative viability EC50 (midpoint between 100% and the lowest measured viability); higher = less toxic
# Calu-3 [15] = test: cell viability relative to DMSO; higher = less toxic
SMILES,drug sensitivity score (Vero E6 [1]),drug sensitivity score (U2OS [2]),drug sensitivity score (HepG2 [3]),drug sensitivity score (Caco-2 [4]),relative viability EC50 (Vero E6 [5]) [µM],relative viability EC50 (U2OS [6]) [µM],relative viability EC50 (HepG2 [7]) [µM],relative viability EC50 (Caco-2 [8]) [µM],cell viability (Vero E6 [9]; 1 nM) [%],cell viability (Vero E6 [9]; 10 nM) [%],cell viability (Vero E6 [9]; 100 nM) [%],cell viability (Vero E6 [9]; 1000 nM) [%],cell viability (Vero E6 [9]; 10000 nM) [%],cell viability (U2OS [10]; 1 nM) [%],cell viability (U2OS [10]; 10 nM) [%],cell viability (U2OS [10]; 100 nM) [%],cell viability (U2OS [10]; 1000 nM) [%],cell viability (U2OS [10]; 10000 nM) [%],cell viability (HepG2 [11]; 1 nM) [%],cell viability (HepG2 [11]; 10 nM) [%],cell viability (HepG2 [11]; 100 nM) [%],cell viability (HepG2 [11]; 1000 nM) [%],cell viability (HepG2 [11]; 10000 nM) [%],cell viability (Caco-2 [12]; 1 nM) [%],cell viability (Caco-2 [12]; 10 nM) [%],cell viability (Caco-2 [12]; 100 nM) [%],cell viability (Caco-2 [12]; 1000 nM) [%],cell viability (Caco-2 [12]; 10000 nM) [%],drug sensitivity score (Calu-3 [13]),relative viability EC50 (Calu-3 [14]) [µM],cell viability (Calu-3 [15]; 1 nM) [%],cell viability (Calu-3 [15]; 10 nM) [%],cell viability (Calu-3 [15]; 100 nM) [%],cell viability (Calu-3 [15]; 1000 nM) [%],cell viability (Calu-3 [15]; 10000 nM) [%]
CC(C)(C)CC(=O)Nc1c(F)cc(C(=O)/N=c2\sccn2COP(=O)(O)O)cc1F,0,0,0,0,> 10,> 10,> 10,> 10,107,104,102,96.5,94.3,95.8,101,97,98.2,95.5,101,114,94.8,98.9,96.9,97.9,109,99.4,104,92.3,,,,,,,
CCc1ccc(C2=CC(C)(C)Sc3ccc(C#Cc4ccc(C(=O)O)cc4)cc32)cc1,6.1,0,2.9,0.6,,> 10,> 10,> 10,98.5,89.8,81.2,74.9,80.6,101,102,96.6,104,93.2,94.7,89.7,83.7,80.6,90.1,100,103,97.7,100,79.4,0,> 10,90.9,113,95.5,94.6,95.2
Nc1nccc(-c2c(-c3ccc(F)cc3)ncn2C2CCCCC2)n1,0.4,0.6,4.3,2.3,> 10,> 10,2.08,,105,103,99.2,108,79.8,98.2,102,103,95.5,85,97.8,99.7,100,92.4,43.3,102,96.2,97.3,85.2,74.8,3.7,,91.1,100,105,87,62.1
Nc1ncnc2c1c(-c1ccc(Oc3ccccc3)cc1)nn2C1CCCC1,0.3,1.1,1,2.3,> 10,> 10,> 10,,94.2,100,97.1,90.8,87.1,102,97.3,101,97.4,78.7,89.7,101,92,88.3,82,109,96.7,95.7,93.6,70.1,3,,105,104,99,95.8,54.5
COc1cc(N)c(Cl)cc1C(=O)N[C@@H]1CCN(CCCOc2ccc(F)cc2)C[C@@H]1OC (racemic) [cisapride],,0,0,0,,> 10,> 10,> 10,,,,,,97.4,101,93.8,98.3,93.5,99.7,101,96,104,102,99.8,103,100,98.9,90.3,0,> 10,99.6,101,84,107,110
Oc1cc2c(cc1O)[C@H]1c3ccccc3CN[C@@H]1CC2 (racemic) [dihydrexidine],0,0,0,0,> 10,> 10,> 10,> 10,96.7,96.7,96.8,97.6,104,101,93.2,104,96.9,104,83.4,95.8,90.9,93.2,82.1,102,97.7,99.6,92.6,97.9,,,,,,,
O=C(OCCO)c1ccccc1O [2-hydroxyethyl-salicylate],,0,0,0,,> 10,> 10,> 10,,,,,,99.2,102,98.6,104,97.6,103,99.8,108,100,89,114,108,100,104,93.3,0,> 10,97.5,95.5,108,108,94.8
CCC(O)(CC(N)=O)c1ccccc1 (stereo not given) [3-hydroxy-3-phenylpentanamide],,0,0,0,,> 10,> 10,> 10,,,,,,95,99,98.3,104,99,95.9,93,107,100,98.1,96.1,106,102,100,95.8,0,> 10,98.2,106,89.4,103,108
CCOc1nc2c(N)ncnc2n1CC [ANR-94],,0,0,0,,> 10,> 10,> 10,,,,,,104,96.2,101,101,105,102,98.3,97.3,96.9,93.2,102,98.3,92.1,90.9,95.1,0,> 10,105,95.1,96.5,95.9,102
"CCC(=O)OCC(=O)[C@@]1(OC(=O)CC)[C@@H](C)C[C@H]2[C@@H]3CCC4=CC(=O)C=C[C@]4(C)[C@@]3(F)[C@@H](O)C[C@@]21C [BETAMETHASONE 17,21-DIPROPIONATE]",0,0,0,0,> 10,> 10,> 10,> 10,103,95.2,91.2,92.9,99.1,91.6,96.8,93.7,97,102,103,88.3,101,95.5,110,99,97.8,99.9,111,98.2,,,,,,,
Cc1cc(O)cc2c1O[C@](C)(CCC[C@H](C)CCC[C@H](C)CCCC(C)C)CC2 [D-delta-tocopherol],,0,0,0,,> 10,> 10,> 10,,,,,,97.7,103,96.9,106,98,114,110,116,103,99.4,102,109,99.8,103,99.1,0,> 10,89.4,96.6,84.8,93.8,79.4
CC(=O)c1ccc2c(c1)[C@@H]1C=CC[C@@H]1[C@H](c1cc3c(cc1Br)OCO3)N2 [G-1],5.8,2.5,3.1,2.4,1.57,3.38,3.53,,102,93.3,95.8,84.8,37.1,100,98.2,94.3,102,49.7,95.4,88.4,111,105,36.4,96.8,93.4,102,98,58.2,,,,,,,
COC(=O)c1cc2c(C(F)(F)F)cc(-c3ccccc3)cc2n1O [NHI-2],0,0,0,0,> 10,> 10,> 10,> 10,104,104,98.8,101,97.5,103,98.1,102,97.1,101,95.1,103,110,98.2,99.3,106,90.2,102,90.1,91.2,,,,,,,
COc1cc(N2CCC(N3CCN(C)CC3)CC2)ccc1Nc1ncc(Cl)c(Nc2ccccc2S(=O)(=O)C(C)C)n1 [NVP-TAE684],4.9,5.7,8.1,4.3,1.81,2.22,0.926,,100,97.2,93.5,89.5,42.6,106,97.9,102,91.2,22.9,91.7,96.1,103,63.9,34.2,103,104,101,87.4,53.5,3.4,,97.2,94.5,90.2,86.6,61.5
CC(=O)c1cnc2ccc(-c3cc(Cl)c(O)c(Cl)c3)nc2c1N[C@H]1CC[C@H](CN(C)C)CC1 [OTS167],29.2,30.5,30.3,21.5,0.0351,0.0295,0.0253,0.0765,96.4,100,6.3,11.7,2.6,97.6,86.7,10.7,5.5,0,108,84.7,11.4,5.1,3.9,98.5,98.4,41.1,34.8,12,,,,,,,

# From the supplement of paper PMC13380429
